Counter-ions that a name gives are not always drawn. Like-named read-outs stand apart in the source and are kept apart here.

Results on eleven compounds are retold here after patent publication EP4534528A1, “NOVEL SULFANONE DERIVATIVE OR PHARMACEUTICALLY ACCEPTABLE SALT THEREOF, AND USE THEREOF” (Korea Institute of Science and Technology, priority 2022, dated 2023).

Series [1] in a line: Metabolic stability in liver microsomes. Type of series: in vitro ADME. The note with it: mouse, pH 6.4, 30 minutes at 37°C. For orientation: Liver microsomes are vesicles of endoplasmic reticulum, rich in cytochrome P450 enzymes.
A further series in a line: in vitro. The note with it: for remaining at 0.5 h, 1 µM: human, pH 6.4, liver microsomes 0.5 mg/mL, 30 minutes at 37°C. The class given is in vitro ADME, Human.
Series [2] in a line: Metabolic stability in liver microsomes. The class given is in vitro ADME. The note with it: rat, pH 6.4, 30 minutes at 37°C. The protocol:
Then, an NADPH regeneration system solution was added thereto and the mixed solution was incubated at 37°C for 30 minutes. […]

A further series has as its system NO (nitric oxide). In words: NO (nitric oxide) inhibitory activity in LPS-treated BV-2 microglial cells. The settings on record: for activity at 0.1 µM / activity at 1 µM / activity at 10 µM: Mus musculus; for activity at 0.1 µM: read-out: Amount of NO (% of control) 0.1 µM; for activity at 1 µM: read-out: Amount of NO (% of control) 1 µM; for activity at 10 µM: read-out: Amount of NO (% of control) 10 µM. The class given is cell-based, mouse.

A further series relates to Nrf2. In words: Nrf2 functional cell-based assay (DiscoveRx). The note with it: U2OS cells, incubated for 6 hours, luminescence; read-out: Nrf2 activation EC50.
For series [3] the following is noted: background statement; cited from earlier work.
The test system of a further series is U2OS cells. The settings on record: known from the literature; cited from earlier work.
The conditions of series [4]: not told; cited from earlier work.
[5] abbreviates: 10 µM compound, BV-2 cells, LPS 1 µg/ml, 24 hours.

For orientation: amount remaining means the share of the starting amount still present when the sample was taken. A higher amount remaining goes with greater stability. As for `O=S(=O)(/C=C/c1ncccc1Cl)c1ccccc1Cl`, the figures for the fraction remaining at 0.5 h, 1 µM (in series [1]; in the series “in vitro”) were 4.5% and 66%, respectively.
Consider `O=S(=O)(/C=C/c1ncccc1Cl)c1ccccc1F`, for which the fraction remaining at 0.5 h, 1 µM in series [1] was 19%; in series [2], 23%; in the series “in vitro”, 72%.
Consider `COc1ccc(S(=N)(=O)/C=C/c2ccccn2)cc1` (stereo not drawn) [Compound 1-2, (E)-imino(4-methoxyphenyl)(2-(pyridin-2-yl)vinyl)-λ^6-sulfanone], for which the amount remaining at 0.5 h, 1 µM stood at 59% in series [1] and 76% in “in vitro”. Moreover, the “amount of drug remaining after incubation with microsomes (in words)” value in the series “in vitro” (30 minutes) was “remained at a high concentration”.
For the compound `N=S(=O)(/C=C/c1ncccc1F)c1ccccc1Cl` (stereo not drawn) [Compound 1-3, (E)-(2-chlorophenyl)(2-(3-fluoropyridin-2-yl)vinyl)(imino)-λ^6-sulfanone], in the series on NO (nitric oxide) (BV-2, 24 h), the activity at 0.1 µM amounted to 90.9%, the activity at 1 µM came out at 51.4% and the activity at 10 µM was less than 3%.
For `COc1cccc(S(=N)(=O)/C=C/c2ncccc2F)c1` (stereo not drawn) [Compound 1-7, (E)-(2-(3-fluoropyridin-2-yl)vinyl)(imino)(3-methoxyphenyl)-λ^6-sulfanone], the activity at 10 µM with NO (nitric oxide) (BV-2, 24 h) was 1.48%.
For the compound `N=S(=O)(/C=C/c1cccnc1)c1ccccc1Cl` (stereo not drawn) [Compound 1-12, (E)-(2-chlorophenyl)(imino)(2-(pyridin-3-yl)vinyl)-λ^6-sulfanone], the activity at 10 µM in the series on NO (nitric oxide) (setting [5]) amounted to 24.8%.
By EC50 is commonly meant the midpoint of the concentration-response curve. On to `C[Si](C)(C)N=S(=O)(/C=C/c1ccccc1Cl)c1ccncc1F` (stereo not drawn) [Compound 1-46, (E)-(2-chlorostyryl)(3-fluoropyridin-4-yl)((trimethylsilyl)imino)-λ^6-sulfanone], for which, in the series with Nrf2, the EC50 stood at 120 nM.
Regarding `COc1ccccc1S(=O)(/C=C/c1ccccc1Cl)=NC#N` (stereo not drawn) [Compound 1-57, (E)-N-((2-chlorostyryl)(2-methoxyphenyl)(oxo)-λ^6-sulfanylidene)cyanamide], the EC50 in the series on Nrf2 worked out at 75 nM.
The same measure, in the same setting: the same measure for `COC(=O)/C=C/C(=O)OC` [DMF, Dimethyl fumarate]: 4330 nM.
As for `C[S+]([O-])CCCCN=C=S` (stereo not drawn) [Sulforaphane, 1-isothiocyanato-4-methylsulfinylbutane], the “time until it disappears when administered to the body” value in series [3] is no more than 1 h. Also, the “concentrations at which high toxicity is exhibited” value with U2OS cells is no less than 5 µM. For the same compound, the activity at 0.1 µM with NO (nitric oxide) (0.1 µM compound, BV-2 cells, LPS 1 µg/ml, 24 hours) stood at 107%. Further, the activity at 1 µM with NO (nitric oxide) (1 µM compound, BV-2 cells, LPS 1 µg/ml, 24 hours) worked out at 79.9%. Further, the activity at 10 µM with NO (nitric oxide) (setting [5]) was found to be 14.9%. Further, the blood-brain barrier permeability result in series [4] is recorded as “very low”.
Turning to “(E)-(2-chlorophenyl)(imino)(2-(2,4,6-trichloropyrimidin-5-yl)vinyl)-λ^6-sulfanone [Compound 1-14]”, the “Amount of NO (% of control) 10 µM” value in the series with NO (nitric oxide) (setting [5]) was < 3.00 % of control. In the series with Nrf2, the EC50 is 3280 nM.
